# Assay results from patent US20250197425A1, “2,6,9-TRISUBSTITUTED PURINES” (ASTRAZENECA AB, priority 2022, published 2025).
# Legend:
# [1] = system: POLR2A Ser2 phosphorylation (CDK9); assay: POLR2A Ser2 phosphorylation imaging assay in MCF-7 cells; format: cell-based; conditions: Homo sapiens, MCF7, 2 h, MCF-7 cells, 2 hours; read-out: POLR2A Ser2 phosphorylation IC50
# Outline: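 MCF-7 cells were fixed, permeabilised and immunostained for POLR2A phospho-Ser2, then imaged by high-content microscopy. Levels were normalised to controls and IC50 values derived.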
# MCF-7 cells = assay: Cellular proliferation EdU assay, MCF-7; format: cell-based; conditions: Homo sapiens, MCF7, 48 h, EdU assay, two days; read-out: MCF-7 IC50
# Outline: (§1)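 MCF-7 (800 cells/well) and OVCAR3 (1200 cells/well) in RPMI with 10% FBS exposed to compounds for two days at 37 °C.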
# OVCAR3 cells = assay: Cellular proliferation EdU assay, OVCAR3; format: cell-based, human; conditions: Homo sapiens, OVCAR-3, 48 h, EdU assay, two days; read-out: OVCAR3 IC50
# Outline: as §1
# CDK4:CCND1 = CDK4:CCND1 (Homo sapiens (Human), UniProt P11802); assay: NanoBRET assay in MCF-7 cells, CDK4; format: cell-based; conditions: NanoBRET, transfected MCF-7 cells, 2 hours; n = 1 or average; read-out: CDK4 IC50
# Outline: (§2)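 Intracellular target engagement was measured by NanoBRET ratio (460 nm/610 nm) in live MCF-7 cells transiently carrying CDK4:CCND1 (Tracer K-7, 100 μM stock) or CDK1:CCNB1 (Tracer K-9, 400 μM stock).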
# CDK2:CCNE1 = CDK2:CCNE1 (Homo sapiens (Human), UniProt P24941); assay: NanoBRET assay in MCF-7 cells, CDK2; format: cell-based; conditions: transfected MCF-7 cells, 2 hours, n = 1 or average
# Outline: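 In live MCF-7 cells, compound added followed by NanoBRET TE Tracer K-9 (stock 200 μM) for CDK2, 2 h at 37° C, 5% CO2.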
# [2] = CLint assessment in human liver microsomes (HLM); format: in vitro ADME; conditions: 1 μM
# Outline: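 Microsomes preincubated 8 min with NADPH, then compound added and incubated 30 min at 37° C. Remaining compound measured by LC-MS/MS. t1/2 and CLint calculated, with CLint scaled to incubation volume per mg microsomal protein.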
# CDK1:CCNB1 = CDK1:CCNB1 (Homo sapiens (Human), UniProt P06493); assay: NanoBRET assay in MCF-7 cells, CDK1; format: cell-based; conditions: NanoBRET, transfected MCF-7 cells, 2 hours; n = 1 or average; read-out: CDK1 IC50
# Outline: as §2
# [3] = Aqueous thermodynamic solubility, shake-flask; format: physicochemical; conditions: aqueous phosphate buffer, 25 °C, pH 7.4, aqueous buffer, thermodynamic from solid, phosphate buffer 0.1 M, pH 7.4, 24 hours
# Outline: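 After 24 h stirring at 25° C. in pH 7.4 phosphate buffer (0.1 M), solid-free supernatant from two centrifugations was quantified by UPLC/MS/MS after dilution in water. Compound was added as dried material after DMSO removal.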
# [4] = CLint assessment in human hepatocytes (HH); format: in vitro ADME; design: unit not given here; conditions: pH 7.4
# Description: Samples were shaken at 800 rpm for 2 minutes and centrifuged at 4000 rpm for 20 minutes at 4° C. to pellet precipitated protein. The supernatant fraction was diluted 1:5 with deionized water, shaken at 1000 rpm for 2 minutes, and further diluted 1:1 with deionized water. Samples were analyzed by LC-MS/MS.
# [5] = system: NPM phosphorylation (Thr199, CDK2-cyclin E complex); assay: NPM phosphorylation imaging assay in MCF-7 cells; format: cell-based; conditions: Homo sapiens, MCF7, 2 hours, 4N DNA cells
# Outline: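 MCF-7 cells were fixed, permeabilised and immunostained, then imaged for phospho-NPM (Thr199), a CDK2-cyclin E site. Analysis was gated on 4N-DNA cells by Hoechst staining. Signals were normalised to controls and fitted for IC50.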
# Chain of CDK1:CCNB1 (P06493 whole entry): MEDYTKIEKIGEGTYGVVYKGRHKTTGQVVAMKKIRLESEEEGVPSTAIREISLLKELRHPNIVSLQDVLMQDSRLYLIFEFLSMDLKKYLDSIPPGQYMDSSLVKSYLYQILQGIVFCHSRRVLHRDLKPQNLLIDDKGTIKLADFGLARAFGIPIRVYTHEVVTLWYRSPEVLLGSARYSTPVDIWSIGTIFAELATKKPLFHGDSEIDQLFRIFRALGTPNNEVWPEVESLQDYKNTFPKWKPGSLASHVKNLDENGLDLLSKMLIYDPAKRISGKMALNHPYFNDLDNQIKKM
# Chain of CDK1:CCNB1 (P14635 whole entry partner): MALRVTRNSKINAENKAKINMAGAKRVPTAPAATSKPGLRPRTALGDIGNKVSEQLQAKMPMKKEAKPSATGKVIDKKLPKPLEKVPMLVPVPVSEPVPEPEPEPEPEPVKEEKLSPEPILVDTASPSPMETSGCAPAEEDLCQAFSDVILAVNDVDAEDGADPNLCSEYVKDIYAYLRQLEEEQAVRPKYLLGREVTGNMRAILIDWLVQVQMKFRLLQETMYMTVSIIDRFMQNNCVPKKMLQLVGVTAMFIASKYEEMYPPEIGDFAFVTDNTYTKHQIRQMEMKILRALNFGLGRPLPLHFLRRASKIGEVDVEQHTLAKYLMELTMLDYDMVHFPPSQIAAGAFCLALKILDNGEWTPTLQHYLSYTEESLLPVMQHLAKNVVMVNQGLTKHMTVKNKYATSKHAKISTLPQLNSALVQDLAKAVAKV
# Chain of CDK4:CCND1 (P11802 whole entry): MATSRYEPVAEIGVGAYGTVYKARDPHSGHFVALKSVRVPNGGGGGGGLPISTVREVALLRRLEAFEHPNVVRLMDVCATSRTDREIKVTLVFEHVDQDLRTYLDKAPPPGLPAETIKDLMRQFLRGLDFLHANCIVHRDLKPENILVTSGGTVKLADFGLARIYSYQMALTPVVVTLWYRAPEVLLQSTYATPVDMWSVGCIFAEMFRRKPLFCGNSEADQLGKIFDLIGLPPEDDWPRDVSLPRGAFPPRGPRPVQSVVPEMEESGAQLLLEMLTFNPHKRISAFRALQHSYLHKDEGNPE
# Chain of CDK4:CCND1 (P24385 whole entry partner): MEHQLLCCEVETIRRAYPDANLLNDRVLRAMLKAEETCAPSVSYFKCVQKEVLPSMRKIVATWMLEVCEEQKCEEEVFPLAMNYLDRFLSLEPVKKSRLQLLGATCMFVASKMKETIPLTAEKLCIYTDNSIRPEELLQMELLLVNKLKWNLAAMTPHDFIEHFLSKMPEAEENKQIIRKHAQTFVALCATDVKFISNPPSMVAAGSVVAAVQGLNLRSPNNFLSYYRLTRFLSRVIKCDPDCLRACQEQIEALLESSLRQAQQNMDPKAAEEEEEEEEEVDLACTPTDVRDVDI
compound,measurement,setting,value
"CC[C@H](CO)Nc1nc(N[C@H]2CCN(S(=O)(=O)NC)C2)c2ncn(CC)c2n1 [Example 47, (S)-3-((9-ethyl-2-(((R)-1-hydroxybutan-2-yl)amino)-9H-purin-6-yl)amino)-N-methylpyrrolidine-1-sulfonamide]",IC50,[1],> 30000 nM
same,IC50,MCF-7 cells,705 nM
same,IC50,OVCAR3 cells,185 nM
same,IC50,CDK4:CCND1,7400 nM
same,IC50,CDK2:CCNE1,35 nM
same,HLM CLint,[2],26 µL/min/mg
same,IC50,CDK1:CCNB1,562 nM
same,solubility at 24 h,[3],253 µM
same,microsomal CLint at 1 μM,[4],< 1
same,IC50,[5],152 nM
